From patent US20260297092A1, “PYRAZOLOPYRIMIDINE DERIVATIVES AS INHIBITORS OF NLRP3” (Takeda Pharmaceutical Company Limited, priority 2023, published 2026) come the findings set out here.

In assay [1] the test system is TNF-α (NF-κB pathway, THP-1 cells). Briefly: TNF-α Assay (IC50). The assay is classed as cell-based, human. To be noted: 600 ng/mL LPS, 3 hours. On the procedure:
TNF-α Assay (Reported as IC50)
Monocytic THP-1 cells (ATCC: TIB-202) were maintained in accordance with the provider's instructions in RPMI media (Life Technologies, Cat #A10491-01); RPMI was supplemented with 10% heat inactivated fetal bovine serum (Hyclone Cat #SH30396.03). The cells were differentiated into macrophages by the addition of 25 ng/mL IFN-7 for 24 hours at 37° C./5% CO2. Media was exchanged with fresh media with no FBS. The cells were plated at 40,000 cells per well in 384-well flat-bottom cell culture plates (Costar 3764) containing compounds (added in 1:1000) in a 1:3.16 serial dilution series in DMSO and were incubated for 30 minutes at 37° C./5% CO2. The NF-κB pathway was activated with the addition of 600 ng/mL LPS and the cells were incubated for 3 hours at 37° C./5% CO2. At the end of the incubation period, supernatant ([…]) was removed, and TNF-alpha were monitored using an ELISA (Human TNF-α ELISA, R&D systems, Cat #DY210) according to the manufacturer's instructions. 100% inhibition is determined with positive control, TPCA-1.
The IC50 values in the TNF-α assay were calculated from a plot of percentage of inhibition versus the inhibitor concentration by a logistics curve fit according to: Y=[Bottom+(Top−Bottom)]/(1+10^[(Log IC50−X)·Hill Slope], where Y was the […] at the inhibitor concentration, X, “Bottom” was the lowest inhibition value, i.e., 0%, “Top” was the maximum inhibition value, i.e., 100%, and the “Hill Slope” described the slope of the sigmoidal curve between the “Bottom” and “Top” values. The curve fitting was conducted with internally developed software.

Assay [2] relates to NLRP3 inflammasome (IL-1β production in THP-1 cells). Briefly: IL-1β TR-FRET Assay (percentage of inhibition at 300 nM, 6 μM or 10 μM). The assay is classed as cell-based, human. To be noted: LPS priming, ATP activation; for inhibition at 6 µM / inhibition at 0.3 µM / inhibition at 10 µM: Homo sapiens; for inhibition at 6 µM: THP-1, 6 μM, read-out: IL-1β inhibitory rate at 6 μM (%); for inhibition at 0.3 µM: THP-1, 300 nM, read-out: IL-1β inhibitory rate at 300 nM (%); for inhibition at 10 µM: THP-1, 10 μM, read-out: IL-1β inhibitory rate at 10 μM (%). The method, boiled down:
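THP-1 cells were differentiated with 25 ng/mL IFN-γ for 24 h, primed with 50 ng/mL LPS in serum-free medium for 24 h, then given compound for 30 min before 20 mM ATP for 2 h. Supernatant IL-1β was measured by HTRF after 16-24 h at room temperature. Inhibition was normalized between DMSO (high) and 3 μM MCC-950 (low).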
For orientation: TR-FRET usually uses a lanthanide donor and a delayed reading to cut background.

As a reminder, the IC50 is the concentration that inhibits the measured activity by half. A high value points to weaker potency. Take `CCOc1nc2nn(-c3c(C(F)(F)F)cc(C4CC4)nc3C)cc2c(=O)[nH]1` [Example 269, 2-[6-cyclopropyl-2-methyl-4-(trifluoromethyl)pyridin-3-yl]-6-ethoxy-2,5-dihydro-4H-pyrazolo[3,4-d]pyrimidin-4-one]: the 50% inhibitory concentration (IC50) in assay [1] (Homo sapiens) was > 30 µM. Also, in assay [2], the inhibition at 6 µM was 100%.
For the molecule `Cc1cc(O)c(-n2cc3c(=O)[nH]c(-c4ccncn4)nc3n2)c(C)c1C` [Example 77, 2-(6-hydroxy-2,3,4-trimethylphenyl)-6-(pyrimidin-4-yl)-2,5-dihydro-4H-pyrazolo[3,4-d]pyrimidin-4-one], in assay [1] (Homo sapiens), the half-inhibitory concentration (IC50) was > 30 µM. The inhibition at 0.3 µM in assay [2] is 99%.
Take `Cc1ccc(-n2cc3c(=O)[nH]c(OCC(C)O)nc3n2)c(C)c1` (racemic) [Example 89, 2-(2,4-dimethylphenyl)-6-(2-hydroxypropoxy)-2,5-dihydro-4H-pyrazolo[3,4-d]pyrimidin-4-one]: in assay [1] (Homo sapiens), the IC50 is > 30 µM. Further, in assay [2], the inhibition at 0.3 µM amounted to 79%.
For the molecule `CCOc1nc2nn(-c3c(OCC)cc(C(F)(F)F)cc3C(F)F)cc2c(=O)[nH]1` [Example 95, 2-[2-(difluoromethyl)-6-ethoxy-4-(trifluoromethyl)phenyl]-6-ethoxy-2,5-dihydro-4H-pyrazolo[3,4-d]pyrimidin-4-one], the IC50 in assay [1] (Homo sapiens) is > 30 µM. For the same molecule, the inhibition at 0.3 µM in assay [2] turned out to be 72%.
The like results for `CCCOc1nc2nn(-c3c(C)cc(C)cc3O)cc2c(=O)[nH]1` [Example 4, 2-(2-hydroxy-4,6-dimethylphenyl)-6-propoxy-2,5-dihydro-4H-pyrazolo[3,4-d]pyrimidin-4-one] were, in that order, > 30 µM and 92%.
For `Cc1ccc(-n2cc3c(=O)[nH]c(Oc4ccccc4)nc3n2)c(C)c1` [Example 100, 2-(2,4-dimethylphenyl)-6-phenoxy-2,5-dihydro-4H-pyrazolo[3,4-d]pyrimidin-4-one], the half-maximal inhibitory concentration (IC50) in assay [1] (Homo sapiens) is > 30 µM. Besides, in assay [2], the inhibition at 10 µM stood at 100%.
For the molecule `COC(C)Cc1nc2nn(-c3c(C)cc(C)cc3O)cc2c(=O)[nH]1` (stereo not shown) [Example 27, 2-(2-hydroxy-4,6-dimethylphenyl)-6-(2-methoxypropyl)-2,5-dihydro-4H-pyrazolo[3,4-d]pyrimidin-4-one], the IC50 in assay [1] (Homo sapiens) is > 30 µM. In assay [2], the inhibition at 0.3 µM was 94%.
Regarding `CCc1cc(C2(F)CC2)cc(C)c1-n1cc2c(=O)[nH]c(OC)nc2n1` [Example 301, 2-[2-ethyl-4-(1-fluorocyclopropyl)-6-methylphenyl]-6-methoxy-2,5-dihydro-4H-pyrazolo[3,4-d]pyrimidin-4-one], the IC50 in assay [1] (Homo sapiens) is > 30 µM. Besides, the inhibition at 6 µM in assay [2] came out at 98%.
Turning to `CCOc1nc2nn(-c3c(F)cc(C4CC4)cc3Cl)cc2c(=O)[nH]1` [Example 137, 2-(2-chloro-4-cyclopropyl-6-fluorophenyl)-6-ethoxy-2,5-dihydro-4H-pyrazolo[3,4-d]pyrimidin-4-one], the IC50 in assay [1] (Homo sapiens) was > 30 µM. The inhibition at 0.3 µM in assay [2] is 98%.
For `CCOc1nc2nn(-c3c(F)cc(Br)cc3Cl)cc2c(=O)[nH]1` [Example 133, 2-(4-bromo-2-chloro-6-fluorophenyl)-6-ethoxy-2,5-dihydro-4H-pyrazolo[3,4-d]pyrimidin-4-one] the same measures were > 30 µM and 96%.
Take `Cc1ncc(-c2nc3nn(-c4c(C)cc(C5CC5)cc4C)cc3c(=O)[nH]2)o1` [Example 273, 2-(4-cyclopropyl-2,6-dimethylphenyl)-6-(2-methyl-1,3-oxazol-5-yl)-2,5-dihydro-4H-pyrazolo[3,4-d]pyrimidin-4-one]: the IC50 in assay [1] (Homo sapiens) was > 30 µM. The inhibition at 6 µM in assay [2] came out at 99%.
On to `Cc1cc(C)c(-n2cc3c(=O)[nH]c(OCC(F)F)nc3n2)c(O)c1` [Example 32, 6-(2,2-difluoroethoxy)-2-(2-hydroxy-4,6-dimethylphenyl)-2,5-dihydro-4H-pyrazolo[3,4-d]pyrimidin-4-one], for which the IC50 in assay [1] (Homo sapiens) was > 30 µM. Further, the inhibition at 0.3 µM in assay [2] worked out at 105%.
Take `CCOc1nc2nn(-c3c(C)cc(C4CC4)cc3C)cc2c(=O)n1C` [Example 141, 2-(4-cyclopropyl-2,6-dimethylphenyl)-6-ethoxy-5-methyl-2,5-dihydro-4H-pyrazolo[3,4-d]pyrimidin-4-one]: the IC50 in assay [1] (Homo sapiens) was > 30 µM. The inhibition at 10 µM in assay [2] came to 95%.
In the case of `Cc1cc(C2CC2)cc(C)c1-n1cc2c(=O)[nH]c(C3CCCO3)nc2n1` (single isomer, unassigned) [Example 228, 2-(4-cyclopropyl-2,6-dimethylphenyl)-6-[(2S)-oxolan-2-yl]-2,5-dihydro-4H-pyrazolo[3,4-d]pyrimidin-4-one or 2-(4-cyclopropyl-2,6-dimethylphenyl)-6-[(2R)-oxolan-2-yl]-2,5-dihydro-4H-pyrazolo[3,4-d]pyrimidin-4-one (HPLC Method A: tR2)], the IC50 in assay [1] was > 30 µM. For the same molecule, in assay [2] (300 nM, 0.3 µM), the “IL-1β inhibitory rate at 300 nM (%)” value came out at 79%.
Regarding `CCOc1cc(C)c(-n2cc3c(=O)[nH]c(OCC)nc3n2)c(F)c1` [Example 160, 6-ethoxy-2-(4-ethoxy-2-fluoro-6-methylphenyl)-2,5-dihydro-4H-pyrazolo[3,4-d]pyrimidin-4-one], in assay [1] (Homo sapiens), the IC50 was > 30 µM. Besides, in assay [2], the inhibition at 0.3 µM was 84%.
In the case of `CCOCc1nc2nn(-c3c(C)cc(C)cc3O)cc2c(=O)[nH]1` [Example 46, 6-(ethoxymethyl)-2-(2-hydroxy-4,6-dimethylphenyl)-2,5-dihydro-4H-pyrazolo[3,4-d]pyrimidin-4-one], the IC50 in assay [1] (Homo sapiens) is > 30 µM. In addition, the inhibition at 0.3 µM in assay [2] came to 95%.
On to `COCCOc1nc2nn(-c3c(C)cc(C)cc3O)cc2c(=O)[nH]1` [Example 22, 2-(2-hydroxy-4,6-dimethylphenyl)-6-(2-methoxyethoxy)-2,5-dihydro-4H-pyrazolo [3,4-d]pyrimidin-4-one], for which the IC50 in assay [1] (Homo sapiens) is > 30 µM. The inhibition at 0.3 µM in assay [2] worked out at 101%.
The like results for `COC[C@@H](C)Oc1nc2nn(-c3c(F)cc(C4CC4)cc3C(F)F)cc2c(=O)[nH]1` [Example 207, 2-[4-cyclopropyl-2-(difluoromethyl)-6-fluoro-phenyl]-6-{[(2R)-1-methoxypropan-2-yl]oxy}-2,5-dihydro-4H-pyrazolo[3,4-d]pyrimidin-4-one] were, in that order, > 30 µM and 98%.
On to `O=c1[nH]c(COC(F)F)nc2nn(-c3ccc(Br)cc3C(F)F)cc12` [Example 267, 2-[4-bromo-2-(difluoromethyl)phenyl]-6-[(difluoromethoxy)methyl]-2,5-dihydro-4H-pyrazolo[3,4-d]pyrimidin-4-one], for which the inhibition at 6 µM in assay [2] stood at 101%.
Same read-out and setting: then `CCOc1nc2nn(-c3c(Br)cc(Br)cc3C(F)F)cc2c(=O)[nH]1` [Example 251, 2-[2,4-dibromo-6-(difluoromethyl)phenyl]-6-ethoxy-2,5-dihydro-4H-pyrazolo[3,4-d]pyrimidin-4-one], with 105%.
Same read-out and setting: then `CO[C@H]1C[C@H](Oc2nc3nn(-c4ccc(C)cc4C)cc3c(=O)[nH]2)C1` [Example 244, 2-(2,4-dimethylphenyl)-6-{[(1r,3r)-3-methoxycyclobutyl]oxy}-2,5-dihydro-4H-pyrazolo[3,4-d]pyrimidin-4-one], with 100%.
Take `Cc1cc(C2CC2)cc(C)c1-n1cc2c(=O)[nH]c([C@H]3CCCCO3)nc2n1` [Example 233, 2-(4-cyclopropyl-2,6-dimethylphenyl)-6-(oxan-2-yl)-2,5-dihydro-4H-pyrazolo[3,4-d]pyrimidin-4-one]: in assay [2], the inhibition at 6 µM was 93%.
Still for that read-out and setting: the figure for `O=c1[nH]c(C2COCCO2)nc2nn(-c3c(F)cc(C4CC4)cc3C(F)F)cc12` (racemic) [Example 305, 2-[4-cyclopropyl-2-(difluoromethyl)-6-fluorophenyl]-6-(1,4-dioxan-2-yl)-2,5-dihydro-4H-pyrazolo[3,4-d]pyrimidin-4-one] is 103%.
In the case of `COc1nc2nn(-c3c(C)cc(C4CC4)cc3C(F)F)cc2c(=O)[nH]1` [Example 209, 2-[4-cyclopropyl-2-(difluoromethyl)-6-methylphenyl]-6-methoxy-2,5-dihydro-4H-pyrazolo[3,4-d]pyrimidin-4-one], the inhibition at 0.3 µM in assay [2] amounted to 103%.
Turning to `Cc1cc(C2CC2)cc(C)c1-n1cc2c(=O)[nH]c(C3C=COCC3)nc2n1` (stereo not shown) [Example 306, 2-(4-cyclopropyl-2,6-dimethylphenyl)-6-(3,4-dihydro-2H-pyran-4-yl)-2,5-dihydro-4H-pyrazolo[3,4-d]pyrimidin-4-one], the inhibition at 6 µM in assay [2] worked out at 98%.
